Experimental data from ChEMBL document CHEMBL1255413, “Proteus mirabilis pmrI, an RppA-regulated gene necessary for polymyxin B resistance, biofilm formation, and urothelial cell invasion” (2010).
In brackets after ≈: the same amount, converted by molar mass.

Each molecule was assayed on Proteus mirabilis (assay: Antimicrobial activity against wild type Proteus mirabilis N2 […] after 16 to 18 hrs by broth microdilution method).
Assay type: functional

Molecule | MIC
CC1(C)S[C@@H]2[C@H](NC(=O)[C@H](N)c3ccccc3)C(=O)N2[C@H]1C(=O)O [AMPICILLIN] | 16 µg/mL (≈ 45.8 µM)
C[C@@H](O)[C@H]1C(=O)N2C(C(=O)O)=C(SCCNC=N)C[C@H]12 [IMIPENEM ANHYDROUS] | 2 µg/mL (≈ 6.68 µM)
CN(C)[C@@H]1C(O)=C(C(N)=O)C(=O)[C@@]2(O)C(O)=C3C(=O)c4c(O)cccc4[C@@](C)(O)[C@H]3C[C@@H]12 [TETRACYCLINE] | 32 µg/mL (≈ 72 µM)
GENTAMICIN | 4 µg/mL

What follows are molecules tested on Proteus mirabilis (assay: Antimicrobial activity against Proteus mirabilis I2 mutant after 16 to 18 hrs by broth microdilution method).
Assay type: functional, organism-based

Molecule | MIC
POLYMYXIN B | 4 µg/mL

What follows are molecules tested on Proteus mirabilis (assay: Antimicrobial activity against PpmrI knockout mutant Proteus mirabilis dIpc complemented with PPmrI gene after 16 to 18 hrs by broth microdilution method).
Assay type: functional

Molecule | MIC
CC1(C)S[C@@H]2[C@H](NC(=O)[C@H](N)c3ccccc3)C(=O)N2[C@H]1C(=O)O [AMPICILLIN] | 16 µg/mL (≈ 45.8 µM)
C[C@@H](O)[C@H]1C(=O)N2C(C(=O)O)=C(SCCNC=N)C[C@H]12 [IMIPENEM ANHYDROUS] | 2 µg/mL (≈ 6.68 µM)
CN(C)[C@@H]1C(O)=C(C(N)=O)C(=O)[C@@]2(O)C(O)=C3C(=O)c4c(O)cccc4[C@@](C)(O)[C@H]3C[C@@H]12 [TETRACYCLINE] | 32 µg/mL (≈ 72 µM)
GENTAMICIN | 4 µg/mL

Each molecule was assayed on Proteus mirabilis (assay: Antimicrobial activity against PpmrI knockout mutant Proteus mirabilis dIp after 16 to 18 hrs by broth microdilution method).
Assay type: functional

Molecule | MIC
CC1(C)S[C@@H]2[C@H](NC(=O)[C@H](N)c3ccccc3)C(=O)N2[C@H]1C(=O)O [AMPICILLIN] | 16 µg/mL (≈ 45.8 µM)
C[C@@H](O)[C@H]1C(=O)N2C(C(=O)O)=C(SCCNC=N)C[C@H]12 [IMIPENEM ANHYDROUS] | 0.25 µg/mL (≈ 0.835 µM)
CN(C)[C@@H]1C(O)=C(C(N)=O)C(=O)[C@@]2(O)C(O)=C3C(=O)c4c(O)cccc4[C@@](C)(O)[C@H]3C[C@@H]12 [TETRACYCLINE] | 32 µg/mL (≈ 72 µM)
GENTAMICIN | 4 µg/mL
POLYMYXIN B | 4 µg/mL
